Assay results taken from patent US20250353873A1, “COMPOUNDS AND METHODS FOR MODULATING APOE EXPRESSION” (Ionis Pharmaceuticals, Inc., priority 2024, published 2025).
Strand notation (5' to 3'): a small letter for the sugar, then the base; units joined by * are phosphorothioate-linked, units joined directly phosphodiester-linked; [ ] holds rarer units or linkages, { } end groups; capitals alone tell only the bases. [ms] = mesyl phosphoramidate linkage; e = 2'-O-(2-methoxyethyl) (MOE); [5mC] = 5-methylcytosine; d = 2'-deoxy (DNA)

How the values were obtained:
human APOE RNA [1] = assay: Activity in APOE C57BL/6NTac-Apoeem7250 knock-in mice, single ICV bolus, 8 weeks (Example 11); format: in vivo; conditions: single ICV bolus 300 μg, 8 weeks post treatment, normalized to mouse Ppia
Experimental: Modified oligonucleotides described above were tested in the APOE C57BL/6NTac-Apoeem7250 knock-in mouse model described above.
Each mouse received a single ICV bolus of 300 μg of modified oligonucleotide. A group of 3-4 mice received a single ICV bolus with PBS as a negative control.
Eight weeks post treatment, mice were sacrificed and RNA was extracted from cortical brain tissue and spinal cord for quantitative real-time RT-PCR analysis of RNA expression of APOE using human primer probe set RTS3073 (described herein above). APOE RNA levels were normalized to mouse Ppia. Mouse Ppia was amplified using primer probe set m_cyclo24 (described herein above). Results are presented as percent human APOE RNA relative to the amount of human APOE RNA in PBS treated animals, (% control). Each experiment is identified in separate tables below.

human APOE RNA [2] = assay: Activity in APOE C57BL/6NTac-Apoeem7250 knock-in mice, single ICV bolus, 16 weeks (Example 12); format: in vivo; conditions: single ICV bolus 300 μg, 16 weeks post treatment, normalized to mouse Ppia
In short: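 Knock-in mice (3-4 per group) received one ICV bolus of 300 μg oligonucleotide, PBS as control. After 16 weeks, human APOE RNA in cortex and spinal cord measured by RT-qPCR, normalized to mouse Ppia, and reported as % of PBS control.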

| Substance | APOE RNA (% control) Cortex (human APOE RNA [1]) | APOE RNA (% control) Spinal Cord (human APOE RNA [1]) | APOE RNA (% control) Cortex (human APOE RNA [2]) | APOE RNA (% control) Spinal Cord (human APOE RNA [2]) |
| --- | --- | --- | --- | --- |
| 1681003: 5-10-5 MOE gapmer GGTGAATCTTTATTAAACTA, linkages soooszsssszzszsooss (antisense eG*eGeTeGeA*dA[ms]dT*d[5mC]*dT*dT*dT[ms]dA[ms]dT*dT[ms]dA*eAeAe[5mC]*eT*eA) [compound 1681003] | 90 % control | 48 % control | 106 % control | 61 % control |
| 1681004: 5-10-5 MOE gapmer GGTGAATCTTTATTAAACTA, linkages ssooszsssszzszsooss (antisense eG*eG*eTeGeA*dA[ms]dT*d[5mC]*dT*dT*dT[ms]dA[ms]dT*dT[ms]dA*eAeAe[5mC]*eT*eA) [compound 1681004] | 120 % control | 89 % control | 127 % control | 61 % control |
| 1681005: 5-10-5 MOE gapmer GGTGAATCTTTATTAAACTA, linkages ssssszsssszzszsssss (antisense eG*eG*eT*eG*eA*dA[ms]dT*d[5mC]*dT*dT*dT[ms]dA[ms]dT*dT[ms]dA*eA*eA*e[5mC]*eT*eA) [compound 1681005] | 101 % control | 70 % control | 116 % control | 68 % control |
| 1681006: 5-10-5 MOE gapmer GGTGAATCTTTATTAAACTA, linkages ssssszsssszzszzssss (antisense eG*eG*eT*eG*eA*dA[ms]dT*d[5mC]*dT*dT*dT[ms]dA[ms]dT*dT[ms]dA[ms]eA*eA*e[5mC]*eT*eA) [compound 1681006] | 85 % control | 71 % control | 120 % control | 80 % control |
| 1681007: 5-10-5 MOE gapmer GGTGAATCTTTATTAAACTA, linkages zsssszsssszzszssszz (antisense eG[ms]eG*eT*eG*eA*dA[ms]dT*d[5mC]*dT*dT*dT[ms]dA[ms]dT*dT[ms]dA*eA*eA*e[5mC][ms]eT[ms]eA) [compound 1681007] | 71 % control | 47 % control | 96 % control | 67 % control |
| 1681020: 5-10-5 MOE gapmer GGTGAATCTTTATTAAACTA, linkages zsssszsssszzszssssz (antisense eG[ms]eG*eT*eG*eA*dA[ms]dT*d[5mC]*dT*dT*dT[ms]dA[ms]dT*dT[ms]dA*eA*eA*e[5mC]*eT[ms]eA) [compound 1681020] | 63 % control | 35 % control | 92 % control | 59 % control |
| 1681021: 5-10-5 MOE gapmer GGTGAATCTTTATTAAACTA, linkages zsssszsssszzssssssz (antisense eG[ms]eG*eT*eG*eA*dA[ms]dT*d[5mC]*dT*dT*dT[ms]dA[ms]dT*dT*dA*eA*eA*e[5mC]*eT[ms]eA) [compound 1681021] | 55 % control | 68 % control | 91 % control | 40 % control |
| 1693039: 5-10-5 MOE gapmer CTTGGTGAATCTTTATTAAA, linkages sssosszzzssssssooss (antisense e[5mC]*eT*eT*eGeG*dT*dG[ms]dA[ms]dA[ms]dT*d[5mC]*dT*dT*dT*dA*eTeTeA*eA*eA) [compound 1693039] | 90 % control | 71 % control | 127 % control | 99 % control |
| 1693040: 5-10-5 MOE gapmer CTTGGTGAATCTTTATTAAA, linkages sssosszzzssssssosss (antisense e[5mC]*eT*eT*eGeG*dT*dG[ms]dA[ms]dA[ms]dT*d[5mC]*dT*dT*dT*dA*eTeT*eA*eA*eA) [compound 1693040] | 80 % control | 77 % control | 92 % control | 71 % control |
| 1693041: 5-10-5 MOE gapmer CTTGGTGAATCTTTATTAAA, linkages ssossszzzssssssosss (antisense e[5mC]*eT*eTeG*eG*dT*dG[ms]dA[ms]dA[ms]dT*d[5mC]*dT*dT*dT*dA*eTeT*eA*eA*eA) [compound 1693041] | 75 % control | 74 % control | 84 % control | 85 % control |
| 1693042: 5-10-5 MOE gapmer CTTGGTGAATCTTTATTAAA, linkages sssosszzzssssssssss (antisense e[5mC]*eT*eT*eGeG*dT*dG[ms]dA[ms]dA[ms]dT*d[5mC]*dT*dT*dT*dA*eT*eT*eA*eA*eA) [compound 1693042] | 77 % control | 81 % control | 90 % control | 65 % control |
| 1693043: 5-10-5 MOE gapmer CTTGGTGAATCTTTATTAAA, linkages sssoszzzzssssssosss (antisense e[5mC]*eT*eT*eGeG*dT[ms]dG[ms]dA[ms]dA[ms]dT*d[5mC]*dT*dT*dT*dA*eTeT*eA*eA*eA) [compound 1693043] | 89 % control | 83 % control | 80 % control | 73 % control |
| 1693044: 5-10-5 MOE gapmer CTTGGTGAATCTTTATTAAA, linkages sssoszzzzssssssssss (antisense e[5mC]*eT*eT*eGeG*dT[ms]dG[ms]dA[ms]dA[ms]dT*d[5mC]*dT*dT*dT*dA*eT*eT*eA*eA*eA) [compound 1693044] | 86 % control | 95 % control | 98 % control | 63 % control |
| 1693045: 5-10-5 MOE gapmer CTTGGTGAATCTTTATTAAA, linkages ssssozzzzssssssssss (antisense e[5mC]*eT*eT*eG*eGdT[ms]dG[ms]dA[ms]dA[ms]dT*d[5mC]*dT*dT*dT*dA*eT*eT*eA*eA*eA) [compound 1693045] | 88 % control | 86 % control | 93 % control | 60 % control |
| 1693047: 5-10-5 MOE gapmer CTTGGTGAATCTTTATTAAA, linkages sssoszzzzssssszosss (antisense e[5mC]*eT*eT*eGeG*dT[ms]dG[ms]dA[ms]dA[ms]dT*d[5mC]*dT*dT*dT*dA[ms]eTeT*eA*eA*eA) [compound 1693047] | 78 % control | 77 % control | 97 % control | 71 % control |
| 1693048: 5-10-5 MOE gapmer CTTGGTGAATCTTTATTAAA, linkages ssssszzzzssssszosss (antisense e[5mC]*eT*eT*eG*eG*dT[ms]dG[ms]dA[ms]dA[ms]dT*d[5mC]*dT*dT*dT*dA[ms]eTeT*eA*eA*eA) [compound 1693048] | 97 % control | 87 % control | 105 % control | 71 % control |
